Assay results as given in article PMC5218480 (PLoS ONE, 2017).

Tested on: MV-4-11 cells
Assay: Gene expression microarray analysis (Affymetrix PrimeView) and GSEA
Assay type: cell-based, human
Design: RFU PODN (11730768_x_at) / Fold change /veh PODN (11730768_x_at) / RFU LINC00158 (11744669_a_at) / Fold change /veh LINC00158 (11744669_a_at) / RFU DUSP10 (11751237_a_at) / Fold change /veh DUSP10 (11751237_a_at) / RFU ID3 (11757404_x_at) / Fold change /veh ID3 (11757404_x_at) / RFU PLEKHG5 (11737974_s_at) / Fold change /veh PLEKHG5 (11737974_s_at) / RFU LRRC4B (11730491_at) / Fold change /veh LRRC4B (11730491_at) / RFU GIMAP4 (11747438_a_at) / Fold change /veh GIMAP4 (11747438_a_at) / RFU KRT8 (11758183_x_at) / Fold change /veh KRT8 (11758183_x_at) / RFU CNN1 (11734310_a_at) / Fold change /veh CNN1 (11734310_a_at) / RFU VPS37D (11726825_at) / Fold change /veh VPS37D (11726825_at) / RFU C10orf10 (11716522_x_at) / Fold change /veh C10orf10 (11716522_x_at) / RFU KIR2DL2 /// KIR2DL4 /// KIR2DL5A /// KIR2DL5B /// KIR2DS1 /// KIR2DS2 /// KIR2DS3 /// KIR2DS4 /// KIR3DL3 /// KIR3DL3 /// KIR3DS1 (11738374_at) / Fold change /veh KIR2DL2 /// KIR2DL4 /// KIR2DL5A /// KIR2DL5B /// KIR2DS1 /// KIR2DS2 /// KIR2DS3 /// KIR2DS4 /// KIR3DL3 /// KIR3DL3 /// KIR3DS1 (11738374_at) / RFU C1QL1 (11718748_at) / Fold change /veh C1QL1 (11718748_at) / RFU TMPRSS4 (11747572_a_at) / Fold change /veh TMPRSS4 (11747572_a_at) / RFU HAMP (11756126_x_at) / Fold change /veh HAMP (11756126_x_at) / RFU RNFT2 (11725882_a_at) / Fold change /veh RNFT2 (11725882_a_at) / RFU NR4A2 (11747474_a_at) / Fold change /veh NR4A2 (11747474_a_at) / RFU ABCC12 (11746883_a_at) / Fold change /veh ABCC12 (11746883_a_at) / RFU TMEM136 (11760407_x_at) / Fold change /veh TMEM136 (11760407_x_at) / RFU CLDN22 /// WWC2 (11732394_at) / Fold change /veh CLDN22 /// WWC2 (11732394_at) / RFU HLA-DPB1 (11760878_x_at) / Fold change /veh HLA-DPB1 (11760878_x_at) / RFU SPINT1 (11716480_a_at) / Fold change /veh SPINT1 (11716480_a_at) / RFU GAP43 (11754022_s_at) / Fold change /veh GAP43 (11754022_s_at) / RFU A4GNT (11735810_at) / Fold change /veh A4GNT (11735810_at) / RFU PRB3 (11715151_x_at) / Fold change /veh PRB3 (11715151_x_at) / RFU TUBB4B (11761932_at) / Fold change /veh TUBB4B (11761932_at) / RFU CAPN14 (11732068_a_at) / Fold change /veh CAPN14 (11732068_a_at) / RFU TMCC2 (11721928_a_at) / Fold change /veh TMCC2 (11721928_a_at) / RFU IRGQ (11745062_a_at) / Fold change /veh IRGQ (11745062_a_at) / RFU FAM174B (11720279_a_at) / Fold change /veh FAM174B (11720279_a_at) / RFU TMPRSS4 (11748680_a_at) / Fold change /veh TMPRSS4 (11748680_a_at) / RFU FAM212B (11763350_a_at) / Fold change /veh FAM212B (11763350_a_at) / RFU PLEKHG5 (11743358_a_at) / Fold change /veh PLEKHG5 (11743358_a_at) / RFU ZSCAN30 (11745921_a_at) / Fold change /veh ZSCAN30 (11745921_a_at) / RFU CMKLR1 (11741424_a_at) / Fold change /veh CMKLR1 (11741424_a_at) / RFU LOC101060620 /// MAPK8IP1 (11723275_at) / Fold change /veh LOC101060620 /// MAPK8IP1 (11723275_at) / RFU SPTSSB (11747773_x_at) / Fold change /veh SPTSSB (11747773_x_at) / RFU PRSS12 (11739890_at) / Fold change /veh PRSS12 (11739890_at) / RFU BIN1 (11741810_x_at) / Fold change /veh BIN1 (11741810_x_at) / RFU WNT11 (11732464_a_at) / Fold change /veh WNT11 (11732464_a_at) / RFU C10orf10 (11716521_a_at) / Fold change /veh C10orf10 (11716521_a_at) / RFU C5orf56 (11738089_at) / Fold change /veh C5orf56 (11738089_at) / RFU CYB561 (11721691_x_at) / Fold change /veh CYB561 (11721691_x_at) / RFU ANKRD19P (11752326_a_at) / Fold change /veh ANKRD19P (11752326_a_at) / RFU OR2T12 /// OR2T33 /// OR2T8 (11738714_s_at) / Fold change /veh OR2T12 /// OR2T33 /// OR2T8 (11738714_s_at) / RFU VCAN (11748164_a_at) / Fold change /veh VCAN (11748164_a_at) / RFU JSRP1 (11732532_at) / Fold change /veh JSRP1 (11732532_at) / RFU KRTAP10-11 (11738290_x_at) / Fold change /veh KRTAP10-11 (11738290_x_at) / RFU MYO3A (11730013_a_at) / Fold change /veh MYO3A (11730013_a_at) / RFU EBF3 (11725865_a_at) / Fold change /veh EBF3 (11725865_a_at) / RFU CAMK2N1 (11719241_x_at) / Fold change /veh CAMK2N1 (11719241_x_at) / RFU C5orf56 (11738088_a_at) / Fold change /veh C5orf56 (11738088_a_at) / RFU OLFML3 (11715873_a_at) / Fold change /veh OLFML3 (11715873_a_at) / RFU LOC100653217 /// NTM (11731650_a_at) / Fold change /veh LOC100653217 /// NTM (11731650_a_at) / RFU MAPK11 (11762145_a_at) / Fold change /veh MAPK11 (11762145_a_at) / RFU FIZ1 (11724087_x_at) / Fold change /veh FIZ1 (11724087_x_at) / RFU OASL (11726364_x_at) / Fold change /veh OASL (11726364_x_at) / RFU SOX15 (11748057_x_at) / Fold change /veh SOX15 (11748057_x_at) / RFU CD79A (11719716_a_at) / Fold change /veh CD79A (11719716_a_at) / RFU HIST1H1D (11736915_at) / Fold change /veh HIST1H1D (11736915_at) / RFU CASKIN2 (11723855_a_at) / Fold change /veh CASKIN2 (11723855_a_at) / RFU LOC730098 (11760151_x_at) / Fold change /veh LOC730098 (11760151_x_at) / RFU OR4N2 (11742367_at) / Fold change /veh OR4N2 (11742367_at) / RFU PRRT2 (11749266_a_at) / Fold change /veh PRRT2 (11749266_a_at) / RFU SNX32 (11753110_a_at) / Fold change /veh SNX32 (11753110_a_at) / RFU CDHR5 (11726645_a_at) / Fold change /veh CDHR5 (11726645_a_at) / RFU RCAN1 (11760418_a_at) / Fold change /veh RCAN1 (11760418_a_at) / RFU FAM167A (11723789_a_at) / Fold change /veh FAM167A (11723789_a_at) / RFU FAM26E (11764081_at) / Fold change /veh FAM26E (11764081_at) / RFU ISYNA1 (11749810_s_at) / Fold change /veh ISYNA1 (11749810_s_at) / RFU ACY1 (11761880_at) / Fold change /veh ACY1 (11761880_at) / RFU 11764098_at / Fold change /veh 11764098_at / RFU SAMD14 (11745864_x_at) / Fold change /veh SAMD14 (11745864_x_at) / RFU NPB (11741838_a_at) / Fold change /veh NPB (11741838_a_at) / RFU TMPRSS6 (11731388_a_at) / Fold change /veh TMPRSS6 (11731388_a_at) / RFU KRTAP10-2 (11738614_at) / Fold change /veh KRTAP10-2 (11738614_at) / RFU ARHGAP8 /// PRR5-ARHGAP8 (11727945_x_at) / Fold change /veh ARHGAP8 /// PRR5-ARHGAP8 (11727945_x_at) / RFU KRTAP5-7 /// NADSYN1 (11734609_at) / Fold change /veh KRTAP5-7 /// NADSYN1 (11734609_at) / RFU RASL12 (11751679_a_at) / Fold change /veh RASL12 (11751679_a_at) / RFU CDKN2B (11736163_a_at) / Fold change /veh CDKN2B (11736163_a_at) / RFU PRF1 (11729649_at) / Fold change /veh PRF1 (11729649_at) / RFU, ZNF638 /// ZNF638-IT1 / Fold change vs veh, ZNF638 /// ZNF638-IT1 / RFU, PANK3 / Fold change vs veh, PANK3 / RFU, SH3YL1 / Fold change vs veh, SH3YL1 / RFU, ZEB2 / Fold change vs veh, ZEB2 / RFU, NRIP1 / Fold change vs veh, NRIP1 / RFU, PTTG1IP / Fold change vs veh, PTTG1IP / RFU, CAPN2 / Fold change vs veh, CAPN2 / RFU, MED14 / Fold change vs veh, MED14 / RFU, SNORA58 / Fold change vs veh, SNORA58 / RFU, C1orf63 / Fold change vs veh, C1orf63 / RFU, LRRFIP1 / Fold change vs veh, LRRFIP1 / RFU, NDUFAF7 / Fold change vs veh, NDUFAF7 / RFU, SLC12A2 / Fold change vs veh, SLC12A2 / RFU, IBTK / Fold change vs veh, IBTK / RFU, ESF1 / Fold change vs veh, ESF1 / Fold change vs veh, TMEM50B / RFU, TAOK1 / Fold change vs veh, TAOK1 / RFU, ACBD3 / Fold change vs veh, ACBD3 / RFU, TMA16 / Fold change vs veh, TMA16 / RFU, RWDD3 / Fold change vs veh, RWDD3 / RFU, BCAT1 / Fold change vs veh, BCAT1 / RFU, EDEM3 / Fold change vs veh, EDEM3 / RFU, TMEM33 / Fold change vs veh, TMEM33 / RFU, WDR75 / Fold change vs veh, WDR75 / RFU, AHCTF1 / Fold change vs veh, AHCTF1 / RFU, TFRC / Fold change vs veh, TFRC / RFU, ZDHHC17 / Fold change vs veh, ZDHHC17 / RFU, NOM1 / Fold change vs veh, NOM1 / RFU, ARL8B / Fold change vs veh, ARL8B / RFU, ZBTB11 / Fold change vs veh, ZBTB11 / RFU, TAMM41 / Fold change vs veh, TAMM41 / RFU, KIAA1704 /// LOC100996395 / Fold change vs veh, KIAA1704 /// LOC100996395 / RFU, ING1 / Fold change vs veh, ING1 / RFU, TRMT61B / Fold change vs veh, TRMT61B / RFU, FUBP3 / Fold change vs veh, FUBP3 / RFU, TP53 / Fold change vs veh, TP53 / RFU, TNKS2 / Fold change vs veh, TNKS2 / RFU, ZFP14 / Fold change vs veh, ZFP14 / RFU, ACTR2 / Fold change vs veh, ACTR2 / RFU, PPP3R1 / Fold change vs veh, PPP3R1 / RFU, PIK3R1 / Fold change vs veh, PIK3R1 / RFU, HNRNPA1 / Fold change vs veh, HNRNPA1 / RFU, RNF170 / Fold change vs veh, RNF170 / RFU, ZNF28 / Fold change vs veh, ZNF28 / RFU, RNGTT / Fold change vs veh, RNGTT / RFU, OGT / Fold change vs veh, OGT / RFU, BRD1 / Fold change vs veh, BRD1 / RFU, MARS / Fold change vs veh, MARS / RFU, ZNF655 / Fold change vs veh, ZNF655 / RFU, FAHD1 / Fold change vs veh, FAHD1 / RFU, BDP1 / Fold change vs veh, BDP1 / RFU, LRRCC1 / Fold change vs veh, LRRCC1 / RFU, ARID1A / Fold change vs veh, ARID1A / RFU, ZNF146 / Fold change vs veh, ZNF146 / RFU, ZNF330 / Fold change vs veh, ZNF330 / RFU, GPN3 / Fold change vs veh, GPN3 / RFU, C9orf123 / Fold change vs veh, C9orf123 / RFU, N4BP2L2 / Fold change vs veh, N4BP2L2 / RFU, ARFIP1 / Fold change vs veh, ARFIP1 / RFU, FAM179B / Fold change vs veh, FAM179B / RFU, BCL10 / Fold change vs veh, BCL10 / RFU, UHRF1BP1L / Fold change vs veh, UHRF1BP1L / RFU, BET1 / Fold change vs veh, BET1 / RFU, CNOT2 / Fold change vs veh, CNOT2 / RFU, ZNF268 / Fold change vs veh, ZNF268 / Fold change vs veh, ZNF507 / RFU, DGCR2 / Fold change vs veh, DGCR2 / RFU, WDSUB1 / Fold change vs veh, WDSUB1 / Fold change vs veh, HSP90B1 /// MIR3652 / RFU, ADSS / Fold change vs veh, ADSS / RFU, GK / Fold change vs veh, GK / RFU, ZNF148 / Fold change vs veh, ZNF148 / RFU, TAF9 / Fold change vs veh, TAF9 / RFU, SLC1A5 / Fold change vs veh, SLC1A5 / RFU, SLMO2 / Fold change vs veh, SLMO2 / RFU, ABCC4 / Fold change vs veh, ABCC4 / RFU, LOC101060439 /// RAP1B / Fold change vs veh, LOC101060439 /// RAP1B / RFU, RFX7 / Fold change vs veh, RFX7 / RFU, GTPBP10 / Fold change vs veh, GTPBP10 / RFU, CNEP1R1 / Fold change vs veh, CNEP1R1 / RFU, BIVM-ERCC5 /// ERCC5 / Fold change vs veh, BIVM-ERCC5 /// ERCC5 / RFU, ILF3 / Fold change vs veh, ILF3 / RFU 11762660_at / Fold change /veh 11762660_at / RFU VCAN (11757783_s_at) / Fold change /veh VCAN (11757783_s_at) / RFU DDX43 (11728927_at) / Fold change /veh DDX43 (11728927_at) / RFU KRT8 (11758188_x_at) / Fold change /veh KRT8 (11758188_x_at) / RFU NKD1 (11759106_at) / Fold change /veh NKD1 (11759106_at) / RFU SRD5A1 (11742802_a_at) / Fold change /veh SRD5A1 (11742802_a_at) / RFU TPSAB1 /// TPSB2 (11721975_s_at) / Fold change /veh TPSAB1 /// TPSB2 (11721975_s_at) / RFU GSTM3 (11746129_a_at) / Fold change /veh GSTM3 (11746129_a_at) / RFU IL23R (11737362_x_at) / Fold change /veh IL23R (11737362_x_at) / RFU TMEM51 (11727254_a_at) / Fold change /veh TMEM51 (11727254_a_at) / RFU PIWIL2 (11732686_x_at) / Fold change /veh PIWIL2 (11732686_x_at) / RFU ORM1 (11744905_x_at) / Fold change /veh ORM1 (11744905_x_at) / RFU CCDC152 (11743942_at) / Fold change /veh CCDC152 (11743942_at) / RFU ECM1 (11717891_a_at) / Fold change /veh ECM1 (11717891_a_at) / RFU IL23R (11748794_a_at) / Fold change /veh IL23R (11748794_a_at) / RFU TNFAIP8L3 (11732012_x_at) / Fold change /veh TNFAIP8L3 (11732012_x_at) / RFU MBOAT4 (11741988_at) / Fold change /veh MBOAT4 (11741988_at) / RFU 11764193_at / Fold change /veh 11764193_at / RFU TMEM53 (11763286_at) / Fold change /veh TMEM53 (11763286_at) / RFU MAGEB2 (11727129_at) / Fold change /veh MAGEB2 (11727129_at) / RFU TMEM200A (11744735_a_at) / Fold change /veh TMEM200A (11744735_a_at) / RFU CCDC152 (11751479_a_at) / Fold change /veh CCDC152 (11751479_a_at) / RFU FAM211A (11726209_a_at) / Fold change /veh FAM211A (11726209_a_at) / RFU RGS16 (11746705_a_at) / Fold change /veh RGS16 (11746705_a_at) / RFU VCAN (11755009_s_at) / Fold change /veh VCAN (11755009_s_at) / RFU RHOB (11743442_s_at) / Fold change /veh RHOB (11743442_s_at) / RFU RGS16 (11720943_a_at) / Fold change /veh RGS16 (11720943_a_at) / RFU RGS16 (11720944_at) / Fold change /veh RGS16 (11720944_at) / RFU, VPS4B / Fold change vs veh, VPS4B / RFU, CREB1 / Fold change vs veh, CREB1 / RFU, DNAJC13 / Fold change vs veh, DNAJC13 / RFU, GNAQ / Fold change vs veh, GNAQ / RFU, CDK5R1 / Fold change vs veh, CDK5R1 / RFU, ZRANB3 / Fold change vs veh, ZRANB3 / RFU, CUL4A / Fold change vs veh, CUL4A / RFU, CCNY / Fold change vs veh, CCNY / RFU, UFL1 / Fold change vs veh, UFL1 / RFU, COG3 / Fold change vs veh, COG3 / RFU, DIAPH2 / Fold change vs veh, DIAPH2 / RFU, SKA2 / Fold change vs veh, SKA2 / RFU, AFF3 / Fold change vs veh, AFF3 / RFU, LMF1 / Fold change vs veh, LMF1 / RFU, IPO11 / Fold change vs veh, IPO11 / RFU, DFFB / Fold change vs veh, DFFB / RFU, FOXP1 / Fold change vs veh, FOXP1 / RFU, CARD8 / Fold change vs veh, CARD8 / RFU, STRN3 / Fold change vs veh, STRN3 / RFU, ADK / Fold change vs veh, ADK / RFU, RASSF2 / Fold change vs veh, RASSF2 / RFU, WIPF1 / Fold change vs veh, WIPF1 / RFU, LARP1B / Fold change vs veh, LARP1B / RFU, RASA1 / Fold change vs veh, RASA1 / RFU, RB1 / Fold change vs veh, RB1 / RFU, PPFIA1 / Fold change vs veh, PPFIA1 / RFU, MAT2A / Fold change vs veh, MAT2A / RFU, CCT5 / Fold change vs veh, CCT5 / RFU, WDR92 / Fold change vs veh, WDR92 / RFU, CUX1 / Fold change vs veh, CUX1 / RFU, TTC7A / Fold change vs veh, TTC7A / RFU, TMEM135 / Fold change vs veh, TMEM135 / RFU, DEPTOR / Fold change vs veh, DEPTOR / RFU, CPM / Fold change vs veh, CPM / RFU, DNAJB6 / Fold change vs veh, DNAJB6 / RFU, CACNA2D3 / Fold change vs veh, CACNA2D3 / RFU, DTX4 / Fold change vs veh, DTX4 / RFU, TFCP2 / Fold change vs veh, TFCP2 / RFU, GMCL1 /// GMCL1P1 / Fold change vs veh, GMCL1 /// GMCL1P1 / RFU, AEBP2 / Fold change vs veh, AEBP2 / RFU, SNHG1 /// SNORD22 /// SNORD25 /// SNORD26 /// SNORD27 /// SNORD28 /// SNORD29 /// SNORD31 / Fold change vs veh, SNHG1 /// SNORD22 /// SNORD25 /// SNORD26 /// SNORD27 /// SNORD28 /// SNORD29 /// SNORD31 / Fold change (Aza/veh), C12orf56 (ProbeSet 11735607_a_at) / Fold change (ACY-1035/veh), C12orf56 (ProbeSet 11735607_a_at) / Fold change (Aza/veh), FGFR1OP (ProbeSet 11751329_s_at) / Fold change (ACY-1035/veh), FGFR1OP (ProbeSet 11751329_s_at) / Fold change (Aza/veh), VPS36 (ProbeSet 11739960_a_at) / Fold change (ACY-1035/veh), VPS36 (ProbeSet 11739960_a_at) / RFU SYPL1 (11715823_x_at) / Fold change /veh SYPL1 (11715823_x_at) / RFU IGFBP7 (11715501_s_at) / Fold change /veh IGFBP7 (11715501_s_at) / RFU REEP3 (11722064_at) / Fold change /veh REEP3 (11722064_at) / RFU IGLL1 (11728026_x_at) / Fold change /veh IGLL1 (11728026_x_at): dose or concentration left out as unconfirmed
Conditions: ProbeSet 11755159_a_at; LIST D

Nc1ncn([C@@H]2O[C@H](CO)[C@@H](O)[C@H]2O)c(=O)n1 [azacitidine]
Fold change vs veh, COG3: 0.82
